In US20230014445A1, “ALLOSTERIC CHROMENONE INHIBITORS OF PHOSPHOINOSITIDE 3-KINASE (PI3K) FOR THE TREATMENT OF DISEASE” (Petra Pharma Corporation, priority 2021, published 2023) one finds IC50 data, which are given here for 15 compounds.

The IC50 is the concentration needed to halve the response being measured.

In test [1] the target is T1, human full length PIK3KA H1047R mutant (p110α/p85α complex) (Homo sapiens, UniProt P42336, H1047R).
T1 construct: Recombinant, catalytically active human full length PIK3KA Wild-type and H1047R mutant were purchased; 6xHis (N); purchased EMD Millipore Sigma 14-792M
T1 sequence (P42336 whole entry H1047R): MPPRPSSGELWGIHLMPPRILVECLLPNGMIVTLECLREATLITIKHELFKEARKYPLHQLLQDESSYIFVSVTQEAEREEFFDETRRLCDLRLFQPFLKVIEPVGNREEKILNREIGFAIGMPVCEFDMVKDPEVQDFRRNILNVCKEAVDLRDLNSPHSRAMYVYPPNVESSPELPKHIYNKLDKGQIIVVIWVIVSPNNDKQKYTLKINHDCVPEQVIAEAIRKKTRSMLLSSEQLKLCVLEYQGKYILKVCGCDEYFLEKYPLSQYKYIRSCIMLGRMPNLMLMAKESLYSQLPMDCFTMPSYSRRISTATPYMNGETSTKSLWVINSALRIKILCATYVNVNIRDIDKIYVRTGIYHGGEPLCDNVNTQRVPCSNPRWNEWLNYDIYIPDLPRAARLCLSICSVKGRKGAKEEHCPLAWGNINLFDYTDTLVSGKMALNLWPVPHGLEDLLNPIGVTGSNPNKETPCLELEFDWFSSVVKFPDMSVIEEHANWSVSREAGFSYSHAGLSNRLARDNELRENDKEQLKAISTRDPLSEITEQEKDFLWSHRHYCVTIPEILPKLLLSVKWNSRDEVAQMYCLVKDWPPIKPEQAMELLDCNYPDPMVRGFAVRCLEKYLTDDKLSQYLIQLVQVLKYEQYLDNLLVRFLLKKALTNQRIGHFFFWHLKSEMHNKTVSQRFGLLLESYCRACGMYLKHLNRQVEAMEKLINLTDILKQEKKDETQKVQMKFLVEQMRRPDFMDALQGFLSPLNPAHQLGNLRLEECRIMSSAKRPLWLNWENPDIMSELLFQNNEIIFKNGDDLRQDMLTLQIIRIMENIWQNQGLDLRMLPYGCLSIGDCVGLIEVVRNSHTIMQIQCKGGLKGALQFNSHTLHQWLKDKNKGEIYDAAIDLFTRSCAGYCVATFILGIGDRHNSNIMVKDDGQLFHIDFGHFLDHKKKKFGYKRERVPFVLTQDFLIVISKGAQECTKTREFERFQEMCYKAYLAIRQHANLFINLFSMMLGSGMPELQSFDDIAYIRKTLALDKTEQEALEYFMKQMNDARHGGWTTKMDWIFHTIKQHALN
T1 sequence (P27986 whole entry partner): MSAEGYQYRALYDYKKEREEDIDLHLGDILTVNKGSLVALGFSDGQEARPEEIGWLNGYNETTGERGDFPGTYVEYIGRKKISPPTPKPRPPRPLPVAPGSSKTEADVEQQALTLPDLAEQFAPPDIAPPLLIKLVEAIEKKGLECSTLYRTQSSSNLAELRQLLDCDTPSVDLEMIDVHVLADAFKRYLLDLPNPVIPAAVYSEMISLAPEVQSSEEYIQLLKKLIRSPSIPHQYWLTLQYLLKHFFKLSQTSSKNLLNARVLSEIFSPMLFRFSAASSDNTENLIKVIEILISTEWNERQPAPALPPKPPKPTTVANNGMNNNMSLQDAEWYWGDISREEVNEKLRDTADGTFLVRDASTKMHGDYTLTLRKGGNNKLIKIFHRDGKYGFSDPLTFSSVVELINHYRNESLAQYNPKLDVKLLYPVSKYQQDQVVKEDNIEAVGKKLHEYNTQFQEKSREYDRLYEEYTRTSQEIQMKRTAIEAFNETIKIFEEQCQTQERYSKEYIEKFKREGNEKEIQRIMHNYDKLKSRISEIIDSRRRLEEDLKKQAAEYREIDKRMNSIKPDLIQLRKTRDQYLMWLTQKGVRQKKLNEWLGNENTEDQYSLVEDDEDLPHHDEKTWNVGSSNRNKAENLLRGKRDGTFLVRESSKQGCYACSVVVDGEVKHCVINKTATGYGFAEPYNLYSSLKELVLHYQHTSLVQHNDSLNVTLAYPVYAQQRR
Put plainly: PI3K-Alpha Kinase (PIK3CA) biochemical activity, H1047R mutant (ADP-Glo). The conditions noted are these: 20 uM ATP. An outline of the steps: (§1)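 ADP formation, measured by ADP-Glo luminescence after reaction to about 10% ATP conversion at 27° C., gives 10-point 4-parameter IC50 curves normalized to no-enzyme and DMSO controls. Lipid substrate was PIP2diC8 or Soy PI at 50 uM, with 20 uM ATP. WT or H1047R p110α/p85α complex (1-5 nM) was preincubated 1 h with compound.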
For orientation: ADP-Glo turns the ADP formed in a reaction into a luminescent signal.

The target in test [2] is T2, human full length PIK3KA Wild-type (p110α/p85α complex) (Homo sapiens, UniProt P42336).
T2 construct: Recombinant, catalytically active human full length PIK3KA Wild-type and H1047R mutant were purchased; 6xHis (N); purchased EMD Millipore Sigma 14-602M
Put plainly: PI3K-Alpha Kinase (PIK3CA) biochemical activity, wild-type (ADP-Glo). The conditions noted are these: 20 uM ATP. An outline of the steps:
as §1

The target in test [3] is PI3K-α (PIK3CA) in MDA-MB-453 cells (Homo sapiens, UniProt P42336). Description: PI3K-Alpha Kinase (PIK3CA) activity in vitro cell based assay (AlphaLisa SureFire). On the procedure:
PI3K-Alpha Kinase (PIK3CA) Activity In Vitro Cell Based Assay and Determining IC50 Values for Inhibitors
The MDA-MB-453 (ATCC-HTB-131) cell line was obtained from the American Type Culture Collection (Manassas, Va.). Cells were maintained in Dulbecco's Modified Eagle Media (DMVEM, Gibco 11965-092) supplemented with 10% Fetal Bovine Serum, heat inactivated (FBS HI, Gibco 10082-147), 1× non-essential amino acids (NEAA, Gibco 11140-050), and 1 mM sodium pyruvate (Gibco 11360-070). Cultures were maintained in a humidified incubator at 37° C. under […].
For compound testing in 0% FBS, MDA-MB-453 cells were seeded at a density of 1.5×10^4 cells per well in white 384-well plates in 20 μl of Minimum Essential Media (MEM) assay media with 1×NEAA, 1 mM sodium pyruvate, and 1 μg/mL human insulin (Sigma I9278). Compounds dissolved in 10 mM stock solutions in DMSO were serially diluted 1:3 in DMSO to generate a 10-point dilution series and plated using an acoustic liquid handler system (Echo 550 Series Liquid Handler, Labcyte). A 5× intermediate compound dilution plate in MEM with 1×NEAA and 1 mM sodium pyruvate (150 μM starting compound concentration in 1.5% DMSO) was then prepared. Five μl of the intermediate serially diluted compounds were added to the cell plate to final concentrations ranging from […] in 0.3% DMSO. 0.3% DMSO alone was used to establish the maximum (MAX) signal and GDC-0032 at a final concentration of 1 μM was used as a reference compound for the minimum (MIN) signal. After 3 hours treatment, the medium was removed, and the cells lysed in 10 μL of 1× SureFire Lysis buffer with shaking for 10 minutes at room temperature. The Acceptor Mix (Reaction Buffer 1+Reaction Buffer 2+Activation Buffer+SureFire Ultra Acceptor Beads) was prepared by diluting Activation buffer 25-fold in combined Reaction Buffer 1 and Reaction Buffer 2. The Acceptor beads were diluted 50-fold in the combined Reaction Buffers. Five μL of Acceptor Mix was added to each well, the plate was sealed and covered with foil and incubated for 1 hour at room temperature. The Donor Mix (dilution buffer+SureFire Ultra Donor Beads) was prepared by diluting Donor Beads 50-fold in dilution buffer. Five μL of the Donor Mix was added to each well and the plate sealed and covered with foil and incubated for 1 hour at room temperature in the dark. The plates were read on a Neo2 plate reader instrument from Biotek using standard AlphaLisa settings.
Compounds were tested in duplicate and the average % inhibition at each compound concentration was used to generate a single dose response curve. The data were processed using the Genedata-Screener tool. Relative IC50 values were determined using luminescence units by calculating percent inhibition with respect to the in-plate “MIN” (GDC-0032 reference control) and “MAX” (DMSO) controls. The data was analyzed using a 4-parameter nonlinear logistic equation (four-parameter logistic concentration-response curve):
Y=bottom+[(top−bottom)/1+(X/IC50)slope]
where Y=% inhibition, X=concentration of inhibitor, bottom=minimum value of y attained by curve-fit, top=maximum value of y attained by curve-fit and slope=steepness of curve at the IC50.
% Inhibition=[(signal at X−median Min)/(median Max−median Min)]×100
IC50: concentration of compound that reduces a given response (ligand binding, enzyme response) by 50%. Relative IC50: concentration giving half the compound's maximum response.
For IC50 values shown in Table B, “A” means IC50<50 nM; “B” means IC50 ranging between 50 nM and 100 nM; “C” means IC50 ranging between 100 nM and 500 nM; “D” means IC50>500 nM.

Where [4] appears, read: 0% FBS, 3 hours treatment, read-out: PI3K-α (PIK3CA) in vitro cell based assay IC50.

Like-named read-outs stand apart in the source and are kept apart here.

Sequence of PI3K-α (PIK3CA) in MDA-MB-453 cells (P42336 whole entry): as the sequence (P42336 whole entry H1047R) above, with R1047H counted along it
Sequence of PI3K-α (PIK3CA) in MDA-MB-453 cells (P27986 2-724, further chain): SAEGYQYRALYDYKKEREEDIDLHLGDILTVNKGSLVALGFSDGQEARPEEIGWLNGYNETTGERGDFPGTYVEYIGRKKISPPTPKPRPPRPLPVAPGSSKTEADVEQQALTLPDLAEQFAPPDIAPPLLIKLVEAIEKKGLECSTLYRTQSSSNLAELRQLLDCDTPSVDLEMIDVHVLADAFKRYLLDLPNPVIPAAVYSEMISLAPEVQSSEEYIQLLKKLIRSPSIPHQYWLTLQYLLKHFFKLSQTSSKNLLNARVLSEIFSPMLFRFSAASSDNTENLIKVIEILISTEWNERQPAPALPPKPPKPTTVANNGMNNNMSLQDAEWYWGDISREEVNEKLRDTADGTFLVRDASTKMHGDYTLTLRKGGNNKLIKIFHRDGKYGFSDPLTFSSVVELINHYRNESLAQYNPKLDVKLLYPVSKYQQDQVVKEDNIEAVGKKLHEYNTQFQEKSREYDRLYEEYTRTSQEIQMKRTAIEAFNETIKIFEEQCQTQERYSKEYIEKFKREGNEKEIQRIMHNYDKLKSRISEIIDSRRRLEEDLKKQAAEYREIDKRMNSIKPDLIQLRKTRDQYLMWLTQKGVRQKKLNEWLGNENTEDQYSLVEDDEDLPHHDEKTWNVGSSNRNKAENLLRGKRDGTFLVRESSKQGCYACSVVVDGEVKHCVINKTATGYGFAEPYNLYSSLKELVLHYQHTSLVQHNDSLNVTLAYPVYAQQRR

Take `Cc1cc(C(C)Nc2ccccc2C(=O)O)c2oc(-c3cncc(-n4cccn4)c3)c(C)c(=O)c2c1` (single isomer, unassigned) [Example 127, 2-[1-[3,6-Dimethyl-4-oxo-2-(5-pyrazol-1-yl-3-pyridyl)chromen-8-yl]ethylamino]benzoic acid, Isomer 1,2,2,2-trifluoroacetic acid]: the 50% inhibitory concentration (IC50) is under 0.5 µM in test [1] (Soy PI lipid substrate); 1 to 5 µM in test [2] (Soy PI lipid substrate); under 50 nM in test [3] (read-out: PI3K-α (PIK3CA) in vitro cell based assay IC50, 0% FBS, 3 hours treatment).
In the case of `COc1ccc(-c2cc(=O)c3cc(C)cc(C(C)Nc4ccccc4C(=O)O)c3o2)cn1` (single isomer, unassigned; isomer 1) [Example 19, 2-[1-[2-(6-Methoxy-3-pyridyl)-6-methyl-4-oxo-chromen-8-yl]ethylamino]benzoic acid, Isomer 1], the half-maximal inhibitory concentration (IC50) in test [1] (Soy PI lipid substrate) is 5 to 10 µM; in test [2] (Soy PI lipid substrate), over 10 µM; in test [3] (setting [4]), over 500 nM.
For `COc1cccc(-c2cc(=O)c3cc(C)cc(C(C)Nc4ccccc4C(=O)O)c3o2)n1` (single isomer, unassigned; isomer 1) [Example 21, 2-[1-[2-(6-Methoxy-2-pyridyl)-6-methyl-4-oxo-chromen-8-yl]ethylamino]benzoic acid, Isomer 1] the same measures were 5 to 10 µM, over 10 µM and over 500 nM.
For `Cc1cc(C(C)Nc2ccccc2C(=O)O)c2oc(-c3ccccn3)c(C)c(=O)c2c1` (single isomer, unassigned; isomer 1) [Example 24, 2-[1-[3,6-Dimethyl-4-oxo-2-(2-pyridyl)chromen-8-yl]ethylamino]benzoic acid, Isomer 1], in that order: under 0.5 µM, 1 to 5 µM and under 50 nM.
For `Cc1cc(C(C)Nc2ccccc2C(=O)O)c2oc(-c3cccnc3)c(C)c(=O)c2c1` (single isomer, unassigned; isomer 1) [Example 25, 2-[1-[3,6-Dimethyl-4-oxo-2-(3-pyridyl)chromen-8-yl]ethylamino]benzoic acid, Isomer 1], in that order: under 0.5 µM, 0.5 to 1 µM and under 50 nM.
`Cc1cc(C(C)Nc2ccccc2C(=O)O)c2oc(-c3ccc(OC(C)C)nc3)cc(=O)c2c1` (single isomer, unassigned; isomer 1) [Example 30, 2-[1-[2-(6-Isopropoxy-3-pyridyl)-6-methyl-4-oxo-chromen-8-yl]ethylamino]benzoic acid, Isomer 1]: the IC50 in test [1] (PIP2diC8 lipid substrate) was 5 to 10 µM; in test [2] (PIP2diC8 lipid substrate) it was over 10 µM; in test [3] (setting [4]), over 500 nM.
For the compound `Cc1cc(C(C)Nc2ccccc2C(=O)O)c2oc(-c3ccc(F)nc3)cc(=O)c2c1` (single isomer, unassigned; isomer 1) [Example 35, 2-[1-[2-(6-Fluoro-3-pyridyl)-6-methyl-4-oxo-chromen-8-yl]ethylamino]benzoic acid, Isomer 1], the IC50 in test [1] (Soy PI lipid substrate) is over 10 µM; in test [2] (Soy PI lipid substrate), over 10 µM; in test [3] (setting [4]) it was over 500 nM.
Consider `Cc1cc(C(C)Nc2ccccc2C(=O)O)c2oc(-c3ccc(C(F)(F)F)nc3)cc(=O)c2c1` (single isomer, unassigned; isomer 1) [Example 37, 2-[1-[6-Methyl-4-oxo-2-[6-(trifluoromethyl)-3-pyridyl]chromen-8-yl]ethylamino]benzoic acid, Isomer 1], for which the concentration for half-maximal inhibition (IC50) in test [1] (Soy PI lipid substrate) is over 10 µM; in test [2] (Soy PI lipid substrate) it was over 10 µM; in test [3] (setting [4]) it was over 500 nM.
Turning to `Cc1cc(C(C)Nc2ccccc2C(=O)O)c2oc(-c3ccc(S(C)(=O)=O)nc3)cc(=O)c2c1` (single isomer, unassigned; isomer 1) [Example 39, 2-[1-[6-Methyl-2-(6-methylsulfonyl-3-pyridyl)-4-oxo-chromen-8-yl]ethylamino]benzoic acid, Isomer 1], the IC50 in test [1] (Soy PI lipid substrate) is over 10 µM; in test [2] (Soy PI lipid substrate), over 10 µM; in test [3] (setting [4]) it was over 500 nM.
For the compound `Cc1cc(C(C)Nc2ccccc2C(=O)O)c2oc(-c3cnc(OC(C)C)nc3)cc(=O)c2c1` (single isomer, unassigned; isomer 1) [Example 41, 2-[1-[2-(2-Isopropoxypyrimidin-5-yl)-6-methyl-4-oxo-chromen-8-yl]ethylamino]benzoic acid, Isomer 1], the figures for the 50% inhibitory concentration (IC50) in test [1] (Soy PI lipid substrate), in test [2] (Soy PI lipid substrate) and in test [3] (setting [4]) were over 10 µM, over 10 µM and over 500 nM, respectively.
`Cc1cc(C(C)Nc2ccccc2C(=O)O)c2oc(-c3cncc(F)c3)c(C)c(=O)c2c1` (single isomer, unassigned; isomer 1) [Example 45, 2-[1-[2-(5-Fluoro-3-pyridyl)-3,6-dimethyl-4-oxo-chromen-8-yl]ethylamino]benzoic acid, Isomer 1]: the IC50 in test [1] (Soy PI lipid substrate) is under 0.5 µM; in test [2] (Soy PI lipid substrate) it was 0.5 to 1 µM; in test [3] (setting [4]), under 50 nM.
For `Cc1cc(C(C)Nc2ccccc2C(=O)O)c2oc(-c3cnn(-c4cccnc4)c3)cc(=O)c2c1` (single isomer, unassigned; isomer 1) [Example 49, 2-[1-[6-Methyl-4-oxo-2-[1-(3-pyridyl)pyrazol-4-yl]chromen-8-yl]ethylamino]benzoic acid, Isomer 1] the same measures were over 10 µM, over 10 µM and over 500 nM.
For `Cc1cc(C(C)Nc2ccc(Cl)nc2C(=O)O)c2oc(-c3ccccn3)c(C)c(=O)c2c1` (single isomer, unassigned; isomer 1) [Example 60, 6-Chloro-3-[1-[3,6-dimethyl-4-oxo-2-(2-pyridyl)chromen-8-yl]ethylamino]pyridine-2-carboxylic acid, Isomer 1], in that order: under 0.5 µM, 0.5 to 1 µM and under 50 nM.
In the case of `Cc1c(-c2ccccn2)oc2c(C(C)Nc3ccc(Cl)nc3C(=O)O)cc(C(F)(F)F)cc2c1=O` (single isomer, unassigned; isomer 1) [Example 61, 6-Chloro-3-[1-[3-methyl-4-oxo-2-(2-pyridyl)-6-(trifluoromethyl)chromen-8-yl]ethylamino]pyridine-2-carboxylic acid, Isomer 1], the figures for the half-maximal inhibitory concentration (IC50) in test [1] (Soy PI lipid substrate), in test [2] (Soy PI lipid substrate) and in test [3] (setting [4]) were under 0.5 µM, 0.5 to 1 µM and under 50 nM, respectively.
For `CC(Nc1ccccc1C(=O)O)c1cc(C(F)(F)F)cc2c(=O)cc(-c3ccccn3)oc12` (single isomer, unassigned; isomer 1) [Example 76, 2-[1-[4-Oxo-2-(2-pyridyl)-6-(trifluoromethyl)chromen-8-yl]ethylamino]benzoic acid, Isomer 1], the 50% inhibitory concentration (IC50) in test [1] (Soy PI lipid substrate) was under 0.5 µM; in test [2] (Soy PI lipid substrate), 5 to 10 µM; in test [3] (setting [4]), 50 to 100 nM.
